Assay [1] relates to Plasmodium falciparum. In words: ST_JUDE: Plasmodium falciparum K1 EC50 (uM) as measured by SYBR green dye. Type of assay: functional, organism-based.
Assay [2] deals with Plasmodium falciparum. The experiment in a line: ST_JUDE: Plasmodium falciparum 3D7 EC50 (uM) as measured by SYBR green dye. Type of assay: functional, organism-based.

Structures are written as SMILES.

As for `CC1CCCCN1CCCNC(=O)c1ccc2c(c1)sc1nc(-c3ccc(F)cc3)cn12` (configuration not stated), the figures for the EC50 in the assay on Plasmodium falciparum [1] and with Plasmodium falciparum [2] were 1.59 µM and 0.634 µM, respectively.
In the same order, the values of `Oc1ccc(Br)cc1CN1CCN(Cc2ccc(Cl)cc2)CC1` are 0.215 µM and 1.48 µM.
In the same order, the values of `CCOc1cccc(-c2cc(C(=O)Nc3cc(C)ccn3)c3ccccc3n2)c1` are > 15 µM and > 15 µM.
As to `Oc1ccc(Br)c2c1NC(c1ccc(Cl)cc1)C1CC=CC21` (configuration not stated), the EC50 with Plasmodium falciparum [1] was found to be 1.57 µM; in the assay on Plasmodium falciparum [2] it was 3.89 µM.
Regarding `Cc1c(C(=O)Nc2cc(Cl)ccc2Cl)cccc1[N+](=O)[O-]`, the EC50 in the assay on Plasmodium falciparum [1] and with Plasmodium falciparum [2] was > 15 µM each time.
Consider `O=C(/C=C/c1ccco1)Nc1ccc(C(F)(F)F)cc1`, for which the EC50 in the assay on Plasmodium falciparum [1] and with Plasmodium falciparum [2] was > 15 µM throughout.
`Cc1ccc(NC(=O)Nc2cccc(Cl)c2)cc1F`: the concentration for a half-maximal effect (EC50) with Plasmodium falciparum [1] and in the assay on Plasmodium falciparum [2] was > 15 µM throughout.
With `CCC(=O)N(Cc1ccccn1)c1nc2ccccc2s1`, the EC50 with Plasmodium falciparum [1] and in the assay on Plasmodium falciparum [2] was > 15 µM throughout.
As to `O=C(Nc1nc(-c2ccccn2)cs1)c1ccccc1Br`, the half-maximal effective concentration (EC50) came to 2.05 µM in the assay on Plasmodium falciparum [1] and 4.53 µM with Plasmodium falciparum [2].
For `O=C(Cc1ccccc1)NC(c1ccc(Cl)cc1)c1c(O)ccc2ccccc12` (configuration not stated), in that order: > 15 µM and > 15 µM.
In the same order, the values of `Cc1ccc(Nc2c(-c3ccccn3)nc3ccc(C)cn23)cc1` are > 15 µM and 3.93 µM.
In the same order, the values of `CC(C(=O)c1ccc(-c2ccccc2)cc1)[n+]1ccccc1` (configuration not stated) are 4 µM and 7.02 µM.
Consider `CCN1CCN(CCCNC(=O)c2ccc3c(c2)sc2nc(-c4ccc(OC)cc4)cn23)CC1`, for which the EC50 in the assay on Plasmodium falciparum [1] was 1.56 µM; with Plasmodium falciparum [2], 0.577 µM.
For the molecule `CC(=O)NC1=NN(C(C)=O)C(C)(c2cccc(NC(C)=O)c2)S1` (configuration not stated), the concentration for a half-maximal effect (EC50) in the assay with Plasmodium falciparum [1] was determined as 4.14 µM; in the assay with Plasmodium falciparum [2], 3.57 µM.
Take `CCc1c(C)nc(-n2nc(C)cc2NC(=O)c2ccc(C(C)(C)C)cc2)nc1O`: the EC50 in the assay on Plasmodium falciparum [1] and with Plasmodium falciparum [2] was > 15 µM in each case.
Turning to `O=C1c2ccccc2/C(=N/Nc2ccc([N+](=O)[O-])cc2)C1c1cc(Br)ccc1[N+](=O)[O-]` (configuration not stated), the EC50 in the assay with Plasmodium falciparum [1] worked out at 3.57 µM; in the assay on Plasmodium falciparum [2], 6.75 µM.
In the case of `CCC(=O)NC(c1ccco1)c1cc(Cl)c2cccnc2c1O` (configuration not stated), the values for the EC50 in the assay with Plasmodium falciparum [1] and with Plasmodium falciparum [2] were 2.69 µM and > 15 µM, respectively.
In the same order, the values of `COc1ccc(/C=C2\Oc3c(ccc(O)c3CN3CCCCC3)C2=O)cc1` are 0.846 µM and 1.63 µM.
For `CCOC(=O)C1=C(C)N=c2s/c(=C\c3cc(Cl)ccc3O)c(=O)n2C1c1ccc(OC)cc1` (configuration not stated), in that order: > 15 µM and > 15 µM.
In the same order, the values of `Cc1ccc(Nc2cc(C)nc(N3CCN(C(=O)Nc4cccc(Cl)c4)CC3)n2)cc1` are > 15 µM and > 15 µM.
As to `O=C1CC(c2ccc([N+](=O)[O-])cc2)C2=C(CC(c3cccs3)CC2=O)N1` (configuration not stated), the figures for the EC50 in the assay on Plasmodium falciparum [1] and in the assay on Plasmodium falciparum [2] were 2.74 µM and 4.89 µM, respectively.
For `CCCCC(=O)NC(c1ccc(N(CC)CC)cc1)c1ccc2cccnc2c1O` (configuration not stated), in that order: 3.01 µM and 1.65 µM.
In the same order, the values of `Cc1cc(Nc2ccc(C)c(F)c2)n2ncnc2n1` are > 15 µM and > 15 µM.
In the same order, the values of `CCc1ccc(CN2CCC(n3nccc3NC(=O)Nc3ccccc3C)CC2)cc1` are > 15 µM and 6.75 µM.
For `CC1=C(C)CC2C(=O)C3=C(C(=O)C2C1)C1c2ccccc2C3c2ccccc21` (configuration not stated), the figures for the EC50 with Plasmodium falciparum [1] and in the assay with Plasmodium falciparum [2] were 1.62 µM and 3.15 µM, respectively.
For `CCc1c(C)nc(-n2nc(C)cc2NC(=O)c2ccc(C)c(C)c2)nc1O`, in that order: > 15 µM and > 15 µM.
For `COc1ccc(C(=O)C2CCCN(Cc3ccc(OCCO)cc3)C2)cc1OC` (configuration not stated), in that order: > 15 µM and > 15 µM.
For `COc1ccc(C2CC3=NC(C)=C(C(=O)OCC(C)C)C(c4ccc(F)cc4)C3=C(O)C2)cc1` (configuration not stated), in that order: 3.01 µM and 2.7 µM.
Regarding `COc1cc(OC)cc(-c2nnc(NC(=O)c3cccc(S(C)(=O)=O)c3)o2)c1`, the EC50 in the assay on Plasmodium falciparum [1] and with Plasmodium falciparum [2] was > 15 µM each time.
Turning to `COc1ccc2cc(C(=O)C3CCCN(C4CCN(C(C)C)CC4)C3)ccc2c1` (configuration not stated), the EC50 with Plasmodium falciparum [1] is > 15 µM; with Plasmodium falciparum [2] it was 7.92 µM.
As for `Cc1ccc(C(NC(=O)CC(C)C)c2ccc3cccnc3c2O)cc1` (configuration not stated), the EC50 in the assay with Plasmodium falciparum [1] and in the assay with Plasmodium falciparum [2] was > 15 µM each time.
Consider `CCCc1cc(O)nc(-n2nc(C)cc2NC(=O)c2cc(Cl)ccc2Cl)n1`, for which the EC50 in the assay on Plasmodium falciparum [1] and in the assay with Plasmodium falciparum [2] was > 15 µM throughout.
For `Cc1cc(N2CCN(C)CC2)nc2ccc(NC(=S)NC3CCN(Cc4ccccc4)CC3)cc12`, the results for the 50% effective concentration (EC50) in the assay on Plasmodium falciparum [1] and with Plasmodium falciparum [2] were 5.8 µM and 1.2 µM, respectively.
In the same order, the values of `C=CC[n+]1c(C)n(N)c2ccccc21` are > 15 µM and > 15 µM.
With `COc1cc(/C=C(\C#N)c2nc(-c3ccc(Cl)cc3)cs2)cc([N+](=O)[O-])c1O`, the EC50 with Plasmodium falciparum [1] and with Plasmodium falciparum [2] was > 15 µM in each case.
Turning to `Oc1ccccc1Nc1nc(-c2cccnc2)nc2ccccc12`, the EC50 is 2.1 µM in the assay with Plasmodium falciparum [1] and > 15 µM in the assay on Plasmodium falciparum [2].
For `CC(C)(C)c1cc(C(=O)Cn2c(NCCO)nc3ccccc32)cc(C(C)(C)C)c1O`, in that order: > 15 µM and > 15 µM.
In the same order, the values of `CC(=O)NC(c1ccc(C(C)C)cc1)c1ccc2cccnc2c1O` (configuration not stated) are 6.76 µM and 6.6 µM.
In the same order, the values of `CCOC(=O)c1cnc2ccc(OC)cc2c1NCc1ccccc1` are > 15 µM and 2.77 µM.
As for `CCc1c(C)c2cc3c(c(C)c2oc1=O)OCN(CCc1ccccc1OC)C3`, the EC50 in the assay on Plasmodium falciparum [1] came out at 0.223 µM; with Plasmodium falciparum [2], 0.757 µM.
Turning to `O=[N+]([O-])c1ccc(NC(c2ccccn2)c2ccc3cccnc3c2O)cc1` (configuration not stated), the values for the EC50 in the assay on Plasmodium falciparum [1] and in the assay with Plasmodium falciparum [2] were 2.28 µM and 4.78 µM, respectively.
For `CC(=O)N1CCc2c(sc(NC(=O)c3ccc(C)c(C)c3)c2C(N)=O)C1`, in that order: > 15 µM and > 15 µM.
For `CCOC(=O)N1CCC(NC(=O)Nc2cc(C(F)(F)F)cc(C(F)(F)F)c2)CC1`, in that order: 1.29 µM and 0.992 µM.
In the case of `Cc1ccc(NC(=O)CSc2nc3c(cnn3CCO)c(=O)[nH]2)cc1`, the figures for the EC50 in the assay with Plasmodium falciparum [1] and with Plasmodium falciparum [2] were 1.91 µM and > 15 µM, respectively.
For `CCO/C(O)=C1\C(C)=NC2=C(C(=O)CC(C)(C)C2)C1c1ccc(Cl)cc1Cl` (configuration not stated), in that order: 1.92 µM and 2.95 µM.
In the same order, the values of `CCOC(=O)c1c(N)n[nH]c1O` are > 15 µM and > 15 µM.
In the same order, the values of `CCCO/C(O)=C1\C(C)=NC2=C(C(=O)CC(c3ccccc3OC)C2)C1c1ccc([N+](=O)[O-])cc1` (configuration not stated) are 1.15 µM and 0.759 µM.
As for `COCC(C)Oc1cccc(CN(Cc2ccncc2)C(=O)/C=C/c2cccc(F)c2)c1` (configuration not stated), the EC50 with Plasmodium falciparum [1] is > 15 µM; with Plasmodium falciparum [2] it was 4.14 µM.
For `CCc1nnc2n1NC(c1ccccc1)C(C(=O)Nc1ccccc1Cl)S2` (configuration not stated), in that order: > 15 µM and > 15 µM.
Regarding `O=C(CCCCCN1C(=O)c2cccc3cccc(c23)C1=O)NO` [SCRIPTAID], the EC50 was determined as 2.22 µM with Plasmodium falciparum [1] and 3.78 µM in the assay on Plasmodium falciparum [2].
In the same order, the values of `CCOC(=O)c1ccc(NC(=O)CSc2nn3c(=O)c(C)nnc3s2)cc1` are > 15 µM and > 15 µM.

The record behind these values is ChEMBL document CHEMBL1154198, “Chemical genetics of Plasmodium falciparum” (Nature, 2010).
